Reference: patent US20230313199A1, “TARGET FOR MODULATING BODY MASS” (Massachusetts Institute of Technology, priority 2020, published 2023)

Tests used:
SERCA2b = SERCA2b protein level by Western blotting, 4B8^FL cells; assay type: cell-based, human; conditions: 40 μM heme for one hour, reduction by MFSD7C^FL expression
Description: FIGS. 5A-5F show MFSD7C and heme regulate thermogenesis through SERCA2b in THP-1 cells. […] 30 hours later, MG132 was added into half of the cells and the other half was not treated. Another 35 hours later, some cells were treated with 40 μM heme for 1 hour before lysis. Cell lysates were immunoprecipitated with anti-FLAG antibody, and eluted, followed by anti-HA immunoprecipitation and elution. Total cell lysate and elute were subjected to Western blotting and probed with anti-SERCA2b or anti-MFSD7C antibodies. Shown are representative data from one of three experiments. […] 24 hrs later, cells were either not treated or treated with 10 μM MG132 for either 6 or 12 hours. The cells were lysed and subjected to FLAG pull-down and blotted with anti-MFSD7C, anti-SERCA2b and anti-ubiquitin antibodies. Shown are representative data from one of three experiments. […] Parental THP-1 cells were either not treated or treated with heme before lysis. Shown are representative data from one of four experiments. […] Shown are representative data from one of two experiments. […] Cells were washed and treated with 40 μM heme for one hour before flow cytometry. Representative FPT histograms from one of three experiments are shown. […] Shown are representative FPT histograms from one of three experiments.
Endogenous protein extraction. […]

[1] = target: T1, endogenous MFSD7C and SERCA2b (Mus musculus, UniProt Q91X85); experiment: Co-IP of endogenous MFSD7C and SERCA2b in bone marrow-derived macrophages; assay type: cell-based; conditions: bone marrow-derived wild-type macrophages, heme treatment
T1 construct: Co-IP and immunoblotting analysis of endogenous MFSD7C with ATP5h, SERCA2b and HMOX1 in bone marrow-derived macrophages; endogenous in cells; host or cells: bone marrow-derived macrophages from C57BL/6 mice
T1 sequence (Q91X85 whole entry): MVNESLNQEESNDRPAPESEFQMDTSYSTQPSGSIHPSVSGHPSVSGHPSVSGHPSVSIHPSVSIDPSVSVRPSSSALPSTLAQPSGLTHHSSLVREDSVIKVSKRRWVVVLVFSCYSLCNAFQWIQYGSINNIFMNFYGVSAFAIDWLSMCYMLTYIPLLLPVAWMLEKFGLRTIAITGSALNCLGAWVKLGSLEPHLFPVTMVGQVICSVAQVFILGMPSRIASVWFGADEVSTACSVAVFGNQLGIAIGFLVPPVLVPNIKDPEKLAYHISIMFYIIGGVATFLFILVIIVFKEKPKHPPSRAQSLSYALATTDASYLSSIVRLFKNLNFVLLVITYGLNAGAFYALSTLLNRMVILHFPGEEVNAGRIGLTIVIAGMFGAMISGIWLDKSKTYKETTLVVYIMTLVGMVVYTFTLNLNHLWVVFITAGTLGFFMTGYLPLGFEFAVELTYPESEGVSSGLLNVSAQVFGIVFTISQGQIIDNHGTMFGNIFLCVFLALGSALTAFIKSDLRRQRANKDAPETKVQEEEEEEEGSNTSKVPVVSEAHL
Description: NTD was incubated with heme and run on Superdex 75 gel filtration column. The flow through was measured for absorbance at 230 nm (gray), 380 nm (blue), and 415 nm (green). Absorbance intensity was normalized to maximum value. […] Heme (100 μM) absorption was set to zero. […] Wildtype (WT) and mutant (Mut) peptide sequences are shown. […] Shown are representative data from five separate experiments. […] Shown are immunoblots of MFSD7C, ATP5h, SERCA2b, and HMOX1 on whole lysates or immunoblots of MFSD7C on anti-ATP5h, anti-SERCA2b and anti-HMOX1 immunoprecipitates. Representative data from one from three experiments are shown. […] Shown are representative data from three separate experiments. WCE: whole cell extract, Sup: supernatant, Mito: 10,000 g mitochondrial fraction. […] THP-1 cells were stained with MitoTracker (green), fixed and permeabilized, and then stained with rabbit polyclonal antibody specific for the C-terminus of MFSD7C, followed with Alexa Fluor® 594-labelled goat anti-rabbit antibody (red). Nuclei were labeled using DAPI (blue). […]
Differentiation of bone marrow-derived macrophage (BMDM). […] Cells were resuspended in DMEM media containing 10% FBS, 2 mM L-glutamine, 2 mM pyruvate, non-essential amino acids (100 μM each), 0.55 mM 2-mercaptoethanol, penicillin/streptomycin), passed through a 40 μm Falcon cell strainer (VWR) to remove large aggregates, and counted. […]

Serca2b^−/− THP-1 cells = experiment: Thermogenesis by FPT in Serca2b knockout THP-1 cells; assay type: cell-based, human; conditions: 40 μM heme 1 hour, FPT flow cytometry
Description: FIGS. 5A-5F show MFSD7C and heme regulate thermogenesis through SERCA2b in THP-1 cells. […] 30 hours later, MG132 was added into half of the cells and the other half was not treated. Another 35 hours later, some cells were treated with 40 μM heme for 1 hour before lysis. Cell lysates were immunoprecipitated with anti-FLAG antibody, and eluted, followed by anti-HA immunoprecipitation and elution. Total cell lysate and elute were subjected to Western blotting and probed with anti-SERCA2b or anti-MFSD7C antibodies. Shown are representative data from one of three experiments. […] 24 hrs later, cells were either not treated or treated with 10 μM MG132 for either 6 or 12 hours. The cells were lysed and subjected to FLAG pull-down and blotted with anti-MFSD7C, anti-SERCA2b and anti-ubiquitin antibodies. Shown are representative data from one of three experiments. […] Parental THP-1 cells were either not treated or treated with heme before lysis. Shown are representative data from one of four experiments. […] Shown are representative data from one of two experiments. […] Cells were washed and treated with 40 μM heme for one hour before flow cytometry. Representative FPT histograms from one of three experiments are shown. […]
In the second approach, we used fluorescent polymeric thermometer (FPT), which we synthesized in-house (see above). […] Then the fluorescence intensities were determined by a flow cytometer.

[2] = target: T2, MFSD7C-SERCA2b co-localization (Homo sapiens, UniProt Q9UPI3); experiment: Confocal co-localization of MFSD7C and SERCA2b in THP-1 cells; assay type: cell-based; conditions: 40 μM heme 1 hour, 0.89 without heme
T2 construct: host or cells: THP-1 cells
T2 sequence (Q9UPI3 whole entry): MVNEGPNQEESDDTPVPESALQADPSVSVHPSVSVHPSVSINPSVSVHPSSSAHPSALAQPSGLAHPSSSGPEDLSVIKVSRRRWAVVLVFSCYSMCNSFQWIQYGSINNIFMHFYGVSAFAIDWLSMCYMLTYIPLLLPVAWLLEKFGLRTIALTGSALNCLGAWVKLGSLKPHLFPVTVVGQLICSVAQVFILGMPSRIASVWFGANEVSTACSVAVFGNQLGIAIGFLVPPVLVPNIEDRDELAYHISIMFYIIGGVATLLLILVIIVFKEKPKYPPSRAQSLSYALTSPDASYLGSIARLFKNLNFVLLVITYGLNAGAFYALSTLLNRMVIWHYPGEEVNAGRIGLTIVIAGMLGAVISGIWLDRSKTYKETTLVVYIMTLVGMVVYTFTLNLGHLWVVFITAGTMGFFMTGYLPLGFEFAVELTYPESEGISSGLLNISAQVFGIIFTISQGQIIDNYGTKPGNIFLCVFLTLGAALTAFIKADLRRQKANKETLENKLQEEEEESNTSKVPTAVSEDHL
Description: FIGS. 16A-16F show Co-localization of MFSD7C and SERCA2b. […] Shown are representative images of THP-1 cells stained for MFSD7C (red), SERCA2b (green), nuclei (blue) and merged image. […] THP-1 cells were not treated or treated with 40 μM of heme for 1 hour and then stained for MFSD7C, SERCA2b and nuclei as in (FIG. 16A). Co-localization between MFSD7C and SERCA2b was quantified. Shown are representative merged images (FIG. 16B) and comparison of Pearson's correlation coefficients values with or without heme treatment (FIG. 16C) (in FIG. 16C, n=7 biologically independent samples). P-values were calculated using unpaired t-test (***p<0.05). […] THP-1 cells were stained for MFSD7C (red), ER (green), mitochondria (blue), and DNA (grey). Shown are representative single and merged images (FIG. 16D). Enlarged image of the boxed area is shown in the last panel (bottom-right). Pearson's rank correlation values between the indicated comparisons are shown (FIG. 16E). (n=3 biologically independent samples). […] THP-1 cells were incubated with FPT for 6 hours, washed, treated with or without 4 μM thapsingargin for 2 hours. The cells were washed and reseeded in poly-lysine coated glass bottom dishes. After cells attached to the glass, medium containing 40 μM heme was added. Cells in the same field were imaged immediately (0 min) and again 1 hour later. […]

C=CC1=C(C)c2cc3[n-]c(cc4[n-]c(cc5nc(cc1n2)C(C)=C5C=C)c(C)c4CCC(=O)O)c(CCC(=O)O)c3C.[Fe+2] [heme]
SERCA2b level (SERCA2b): restored
co-IP of endogenous MFSD7C and SERCA2b [1]: diminished
thermogenesis following heme treatment (Serca2b^−/− THP-1 cells): significantly diminished
Pearson's correlation coefficient value of MFSD7C/SERCA2b co-localization [2]: 0.67
